Article PMC3260207, “Site-Directed Mutations and the Polymorphic Variant Ala160Thr in the Human Thromboxane Receptor Uncover a Structural Role for Transmembrane Helix 4” (PLoS ONE, 2012)
Residue numbers refer to the chain shown, from its start.

How the values were obtained:
[1] = target: T1, TP A160S mutant (Homo sapiens, UniProt P21731, A160S); assay: Heterologous competition binding, unlabeled U46619 against 4 nM [3H] SQ 29,548; conditions: read-out: Ki of agonist U46619, 4 nM [3H] SQ 29,548, 2 hr room temperature, Cheng-Prusoff from IC50
T1 construct: expressed in transfected cells; HEK293T (calcium assays)
T1 sequence (P21731 1-343 A160S): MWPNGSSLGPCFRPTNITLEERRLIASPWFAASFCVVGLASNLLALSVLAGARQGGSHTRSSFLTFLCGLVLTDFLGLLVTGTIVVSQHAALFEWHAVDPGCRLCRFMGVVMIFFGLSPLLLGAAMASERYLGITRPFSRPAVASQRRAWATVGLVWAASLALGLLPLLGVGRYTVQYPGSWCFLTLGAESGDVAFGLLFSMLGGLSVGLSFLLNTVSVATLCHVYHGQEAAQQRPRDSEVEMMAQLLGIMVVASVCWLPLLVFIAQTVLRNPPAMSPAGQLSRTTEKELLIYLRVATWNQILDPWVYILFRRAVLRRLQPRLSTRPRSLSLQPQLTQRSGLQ
Method: (§1) Amino acid substitutions were introduced into the synthetic TPα gene carried by the expression vector pMT4 as described previously, [29]. DNA sequences of all the mutated genes were verified by automated DNA sequencing. To minimize variations in transfection efficiency, the total amount transfected DNA was kept constant in all cases at 1 µg of DNA per 7×10^5 cells. The wild type TP or mutant genes were expressed in COS-1 cells using a DEAE-dextran based transient transfection method, [29], and in HEK293T cells using lipofectamine 2000 (Invitrogen). Except unless specified, the membranes prepared from COS-1 cells were used for radioligand binding assays and immunoblots. For intracellular calcium determination assays and immunofluorescence imaging, HEK293T cells were used. For transient transfections of HEK293T cells using the plasmid pMT4, lipofectamine 2000 (Invitrogen) mediated transfection was used as described by the manufacturer. Membranes were prepared using Buffers A and B and as described previously, [29]. The protein concentration in the resuspended membrane pellet was determined using a modified DC protein assay kit from Bio-Rad Laboratories (Hercules, CA).
(§2) These were carried out in Buffer C for 60 min at room temperature, using 2 to 20 µg of membrane protein and different concentrations of [^3H] […] Binding of [^3H] […] Competition binding assays were performed using 4 nM [^3H] […] Binding was terminated by filtering under vacuum on GF/A filters (Millipore). Filter-bound radioactivity was measured using a liquid scintillation counter. Equilibrium dissociation constants (Kd) were determined from saturation isotherms using PRISM software version 5.0 (GraphPad Software Inc, San Diego, CA, USA). The Ki values were calculated from the IC50, using the equation of Cheng and Prusoff by PRISM software version 5.0. Where applicable, statistical significance of the data was evaluated using analysis of variance (ANOVA) and/or unpaired t test.

[2] = target: T2, TP A160T mutant (nsSNP variant) (Homo sapiens, UniProt P21731, A160T); assay: as above; conditions: read-out: Ki of agonist U46619, 4 nM [3H] SQ 29,548, 2 hr room temperature, Cheng-Prusoff from IC50
T2 construct: expressed in transfected cells; HEK293T (calcium assays)
T2 sequence (P21731 1-343 A160T): T1 sequence (P21731 1-343 A160S) with S160T
Method: as §1, §2

[3] = target: T3, TP F115A mutant (Homo sapiens, UniProt P21731, F115A); assay: Saturation radioligand binding with [3H] SQ 29,548, membranes; parameters: expressed in transfected cells; host or cells: COS-1 cells (membranes), transient, pMT4; conditions: picomoles of TP per milligram of total membrane protein, mean ± S.E
T3 sequence (P21731 1-343 F115A): T1 sequence (P21731 1-343 A160S) with F115A, S160A
Method: as §1, with “For intracellular calcium determination assays and immunofluorescence imaging, HEK293T cells were used. For transient transfections of HEK293T cells using the plasmid pMT4, lipofectamine 2000 (Invitrogen) mediated transfection was used as described by the manufacturer. Membranes were prepared using Buffers A and B and as described previously, [29].” left out
(§3) These were carried out in Buffer C for 60 min at room temperature, using 2 to 20 µg of membrane protein and different concentrations of [^3H] […] Filter-bound radioactivity was measured using a liquid scintillation counter. Equilibrium dissociation constants (Kd) were determined from saturation isotherms using PRISM software version 5.0 (GraphPad Software Inc, San Diego, CA, USA). The Ki values were calculated from the IC50, using the equation of Cheng and Prusoff by PRISM software version 5.0.

[4] = target: T4, TP A160V/F115A double mutant (Homo sapiens, UniProt P21731, A160V/F115A); assay: as above; parameters: expressed in transfected cells; host or cells: COS-1 cells (membranes), transient, pMT4; conditions: picomoles of TP per milligram of total membrane protein, mean ± S.E
T4 sequence (P21731 1-343 F115A/A160V): T1 sequence (P21731 1-343 A160S) with F115A, S160V
Method: as §1, with “For intracellular calcium determination assays and immunofluorescence imaging, HEK293T cells were used. For transient transfections of HEK293T cells using the plasmid pMT4, lipofectamine 2000 (Invitrogen) mediated transfection was used as described by the manufacturer. Membranes were prepared using Buffers A and B and as described previously, [29].” left out
as §3

**Q.** Which results are given for `CCCCC[C@H](O)/C=C/[C@@H]1[C@@H](C/C=C\CCCC(=O)O)[C@H]2CO[C@@H]1C2` [U46619]?
**A.** Ki [1]: 1520 nM; Ki [2]: 720 nM

**Q.** What does the source list for `O=C(O)CCC/C=C\C[C@@H]1[C@H](CNNC(=O)Nc2ccccc2)[C@H]2CC[C@@H]1O2` [SQ 29,548]?
**A.** Bmax, binding maximum of the ligand SQ 29,548 for the receptor [3]: 1.8 ± 0.2 pmol/mg; Bmax, binding maximum of the ligand SQ 29,548 for the receptor [4]: 2.1 ± 0.4 pmol/mg
